Reference: publication PMC12655637, “Design, Synthesis, and Mechanistic Study of Novel Ciprofloxacin/Thiazole Chalcone Hybrids as Potential Anticancer Agents” (Pharmaceuticals, 2025)

Experiments:
HL-60(TB) = test: NCI-60 screening, one-dose (10 µM) and five-dose, SRB; format: cell-based, human; details: HL-60(TB)
MOLT-4 = test: as above; format: cell-based, human
A549/ATCC = test: as above; format: cell-based, human
HOP-62 = test: as above; format: cell-based, human; details: five-dose, HOP-62
NCI-H322M = test: as above; format: cell-based, human
NCI-H522 = test: as above; format: cell-based, human
HCT-15 = test: as above; format: cell-based, human
HT29 = test: as above; format: cell-based, human
SF-539 = test: as above; format: cell-based, human
SNB-19 = test: as above; format: cell-based
SNB-75 = test: as above; format: cell-based, human
U251 = test: as above; format: cell-based, human
LOX IMVI = test: as above; format: cell-based, human
MALME-3M = test: as above; format: cell-based, human
M14 = test: as above; format: cell-based, human
MDA-MB-435 = test: as above; format: cell-based; details: MDA-MB-435
SK-MEL-28 = test: as above; format: cell-based, human
SK-MEL-5 = test: as above; format: cell-based, human
UACC-62 = test: as above; format: cell-based
IGROV1 = test: as above; format: cell-based, human
OVCAR-3 = test: as above; format: cell-based
OVCAR-5 = test: as above; format: cell-based, human; details: five-dose, OVCAR-5
OVCAR-8 = test: as above; format: cell-based, human
NCI/ADR-RES = test: as above; format: cell-based, human
SK-OV-3 = test: as above; format: cell-based, human
A498 = test: as above; format: cell-based
PC-3 = test: as above; format: cell-based, human
BT-549 = test: as above; format: cell-based
T-47D = test: as above; format: cell-based, human; details: five-dose
[1] = tested on: 60 human cancer cell lines; test: NCI-60 screening, full panel (mean growth, MID a, ranges over all lines)
Experimental: The screening was performed in accordance with the protocols set forth by the Drug Evaluation Department of the National Cancer Institute (NCI), Bethesda, USA, for in vitro anticancer efficacy at a single concentration of 10 µM against a panel of 60 cancer cell lines derived from nine distinct organs (https://dctd.cancer.gov/data-tools-biospecimens/data (accessed on 15 March 2023 and 6 January 2024)) [37].
The log10 GI50, log10 TGI, and log10 LC50 values were subsequently calculated as the averages of the log10 values of the respective individual GI50, TGI, and LC50 measurements. Negative numbers signified the most sensitive cell lines.
One way to measure a compound’s selectivity is to divide its subpanel MID^b (in μM) by the MID^a (in μM), which is the average sensitivity of all cell lines to the test agent.
At the National Cancer Institute (NCI) in Bethesda, USA, researchers examined the anticancer potential of the target compounds under investigation using nine panels of sixty different cell lines obtained from nine different cancers that were housed in the NCI library. Following the protocols laid out by the National Cancer Institute (https://dctd.cancer.gov/data-tools-biospecimens/data (accessed on 15 March 2023 and 6 January 2024)), the screening procedures were carried out [37]. The anticancer screening was carried out at a single dose of 10^−5 M; the results obtained were expressed as growth inhibition (%).
The anti-cancer potential of the tested compounds was evaluated at the National cancer institute (NCI), Bethesda, USA, against 9 panels of 60 various cell lines derived from nine human tumours available usually at NCI library. The procedures for the screening were described in details in NCI website (dttp://www.dtp.nci.nih.gov.) and were done according to NCI protocols. The anticancer screening was carried out at single dose of 10^-5 M. The results obtained as growth inhibition (%).
Cell lines were grown in Roswell Park Memorial Institute medium (RPMI) with 5% fetal bovine serum and 2% μM L-glutamine. Cancer cells are inoculated into 96 well microtiter plates in 100 μL at plating densities ranging from 5000 to 40,000 cells/well depending on the doubling time of individual cell lines. Then microtiter plates are incubated at 37 °C, 5% CO2, 95% air and 100% relative humidity for 24 h prior to the addition of the tested compounds. After 24 h, two plates of each cell line are fixed in situ with trichloroacetic acid (TCA). The tested compounds were dissolved in dimethyl sulfoxide (DMSO) and stored in the freezer prior to use. An aliquot of frozen drug concentrate is diluted to the desired concentration with complete medium containing 50 μg/mL gentamicin.

[2] = Homo sapiens, five-dose, read-out: LC50 (the source's name)
[3] = Homo sapiens, five-dose, MOLT-4
[4] = Homo sapiens, read-out: LC50 (the source's name)
[5] = Homo sapiens, five-dose, NCI-H522
[6] = Homo sapiens, five-dose, HCT-15
[7] = Homo sapiens, HT-29, five-dose, HT29
[8] = Homo sapiens, five-dose, SF-539
[9] = Homo sapiens, five-dose, SNB-19
[10] = Homo sapiens, five-dose, SNB-75
[11] = Homo sapiens, U-251, five-dose, U251
[12] = Homo sapiens, five-dose, SK-MEL-28
[13] = Homo sapiens, five-dose, SK-MEL-5
[14] = Homo sapiens, five-dose, UACC-62
[15] = Homo sapiens, IGROV-1, five-dose, IGROV1
[16] = Homo sapiens, five-dose, OVCAR-3
[17] = Homo sapiens, five-dose, OVCAR-8
[18] = Homo sapiens, five-dose, BT-549

## Cc1nc(SCC(=O)N2CCN(c3cc4c(cc3F)c(=O)c(C(=O)O)cn4C3CC3)CC2)sc1C(=O)/C=C/c1cccc(Cl)c1 [Compound 4b, (E)-7-(4-(2-((5-(3-(3-Chlorophenyl)acryloyl)-4-methylthiazol-2-yl)thio)acetyl)piperazin-1-yl)-1-cyclopropyl-6-fluoro-4-oxo-1,4-dihydroquinoline-3-carboxylic Acid]
HL-60(TB); Homo sapiens, HL-60, five-dose
  IC50: 3.7 µM
HL-60(TB); Homo sapiens, five-dose
  GI50: 2.6 µM
HL-60(TB); [2]
  CC50: 34.7 µM
HL-60(TB); five-dose
  TGI: 11.2 µM
MOLT-4; Homo sapiens, 10 μM, MOLT-4, Leukemia, read-out: Growth percentage
  activity at 10 µM: 66.1%
MOLT-4; [3]
  GI50: 12.9 µM
  IC50: 21.9 µM
  LC50 (concentration killing 50% of cells): 56.2 µM
MOLT-4; five-dose, MOLT-4
  TGI: 26.9 µM
A549/ATCC; Homo sapiens, 10 μM, Non-Small-Cell Lung Cancer, read-out: Growth percentage
  activity at 10 µM: 82.4%
A549/ATCC; Homo sapiens, five-dose
  GI50: > 100 µM
  IC50: > 100 µM
A549/ATCC; [2]
  CC50: > 100 µM
A549/ATCC; five-dose
  TGI: 100.0 µM
HOP-62; Homo sapiens
  GI50: 4.3 µM
  IC50: > 100 µM
HOP-62; [4]
  CC50: > 100 µM
HOP-62
  TGI: 100.0 µM
NCI-H322M; 10 μM, Non-Small-Cell Lung Cancer
  Growth percentage: 100.9%
NCI-H322M; Homo sapiens, five-dose
  GI50: > 100 µM
  IC50: > 100 µM
  LC50: > 100 µM
NCI-H322M; five-dose
  TGI: 100.0 µM
NCI-H522; Homo sapiens, 10 μM, NCI-H522, Non-Small-Cell Lung Cancer, read-out: Growth percentage
  activity at 10 µM: 98.5%
NCI-H522; [5]
  GI50: > 100 µM
  IC50: > 100 µM
  LC50 (concentration killing 50% of cells): > 100 µM
NCI-H522; five-dose, NCI-H522
  TGI: 100.0 µM
HCT-15; Homo sapiens, 10 μM, HCT-15, Colon Cancer, read-out: Growth percentage
  activity at 10 µM: 26.9%
HCT-15; [6]
  IC50: > 100 µM
  LC50 (50% lethal concentration): > 100 µM
HCT-15; five-dose, HCT-15
  TGI: 100.0 µM
HT29; Homo sapiens, HT-29, 10 μM, HT29, Colon Cancer, read-out: Growth percentage
  activity at 10 µM: 24.4%
HT29; [7]
  GI50: > 100 µM
  IC50: > 100 µM
HT29; Homo sapiens, HT-29, five-dose, HT29, read-out: LC50 (the source's name)
  CC50: > 100 µM
HT29; five-dose, HT29
  TGI: 100.0 µM
SF-539; Homo sapiens, SF-539, 10 μM, SF-539, CNS Cancer, read-out: Growth percentage
  activity at 10 µM: 22.1%
SF-539; [8]
  GI50: 3.7 µM
  IC50: 15.1 µM
SF-539; Homo sapiens, five-dose, SF-539, read-out: LC50 (the source's name)
  CC50: > 100 µM
SF-539; five-dose, SF-539
  TGI: 61.7 µM
SNB-19; Homo sapiens, 10 μM, SNB-19, CNS Cancer, read-out: Growth percentage
  activity at 10 µM: 54.7%
SNB-19; [9]
  GI50: 22.4 µM
  IC50: 49 µM
SNB-19; Homo sapiens, five-dose, SNB-19, read-out: LC50 (the source's name)
  CC50: > 100 µM
SNB-19; five-dose, SNB-19
  TGI: 100.0 µM
SNB-75; Homo sapiens, 10 μM, SNB-75, CNS Cancer, read-out: Growth percentage
  activity at 10 µM: 102%
SNB-75; [10]
  GI50: 28.8 µM
  IC50: > 100 µM
SNB-75; Homo sapiens, five-dose, SNB-75, read-out: LC50 (the source's name)
  CC50: > 100 µM
SNB-75; five-dose, SNB-75
  TGI: 77.6 µM
U251; Homo sapiens, U-251, 10 μM, U251, CNS Cancer, read-out: Growth percentage
  activity at 10 µM: 41.9%
U251; [11]
  GI50: 34.7 µM
  IC50: > 100 µM
U251; Homo sapiens, U-251, five-dose, U251, read-out: LC50 (the source's name)
  CC50: > 100 µM
U251; five-dose, U251
  TGI: 100.0 µM
LOX IMVI; Homo sapiens, 10 μM, Melanoma, read-out: Growth percentage
  activity at 10 µM: 36.9%
LOX IMVI; Homo sapiens, five-dose
  GI50: 2.4 µM
  IC50: 3 µM
LOX IMVI; [2]
  CC50: > 100 µM
LOX IMVI; five-dose
  TGI: 100.0 µM
MALME-3M; 10 μM, Melanoma
  Growth percentage: 143.6%
MALME-3M; Homo sapiens, five-dose
  GI50: > 100 µM
  IC50: > 100 µM
MALME-3M; [2]
  CC50: > 100 µM
MALME-3M; five-dose
  TGI: 100.0 µM
M14; Homo sapiens, 10 μM, M14, Melanoma, read-out: Growth percentage
  activity at 10 µM: 48.7%
M14; Homo sapiens, five-dose, M14
  GI50: 27.5 µM
  IC50: 69.2 µM
M14; Homo sapiens, five-dose, M14, read-out: LC50 (the source's name)
  CC50: > 100 µM
M14; five-dose, M14
  TGI: 100.0 µM
MDA-MB-435; Homo sapiens
  GI50: 3.5 µM
  IC50: 7.4 µM
MDA-MB-435; [2]
  CC50: > 100 µM
MDA-MB-435; five-dose
  TGI: 52.5 µM
SK-MEL-28; Homo sapiens, 10 μM, SK-MEL-28, Melanoma, read-out: Growth percentage
  activity at 10 µM: 84.1%
SK-MEL-28; [12]
  GI50: 26.9 µM
  IC50: 87.1 µM
SK-MEL-28; Homo sapiens, five-dose, SK-MEL-28, read-out: LC50 (the source's name)
  CC50: > 100 µM
SK-MEL-28; five-dose, SK-MEL-28
  TGI: 100.0 µM
SK-MEL-5; Homo sapiens, 10 μM, SK-MEL-5, Melanoma, read-out: Growth percentage
  activity at 10 µM: 50.3%
SK-MEL-5; [13]
  GI50: 21.9 µM
  IC50: > 100 µM
SK-MEL-5; Homo sapiens, five-dose, SK-MEL-5, read-out: LC50 (the source's name)
  CC50: > 100 µM
SK-MEL-5; five-dose, SK-MEL-5
  TGI: 100.0 µM
UACC-62; Homo sapiens, 10 μM, UACC-62, Melanoma, read-out: Growth percentage
  activity at 10 µM: 76.3%
UACC-62; [14]
  GI50: 20.9 µM
  IC50: > 100 µM
UACC-62; Homo sapiens, five-dose, UACC-62, read-out: LC50 (the source's name)
  CC50: > 100 µM
UACC-62; five-dose, UACC-62
  TGI: 100.0 µM
IGROV1; 10 μM, IGROV1, Ovarian Cancer
  Growth percentage: 73.9%
IGROV1; [15]
  GI50: > 100 µM
  IC50: > 100 µM
IGROV1; Homo sapiens, IGROV-1, five-dose, IGROV1, read-out: LC50 (the source's name)
  CC50: > 100 µM
IGROV1; five-dose, IGROV1
  TGI: 100.0 µM
OVCAR-3; Homo sapiens, 10 μM, OVCAR-3, Ovarian Cancer, read-out: Growth percentage
  activity at 10 µM: 13.9%
OVCAR-3; [16]
  GI50: 22.9 µM
  IC50: 41.7 µM
OVCAR-3; Homo sapiens, five-dose, OVCAR-3, read-out: LC50 (the source's name)
  CC50: > 100 µM
OVCAR-3; five-dose, OVCAR-3
  TGI: 52.5 µM
OVCAR-5; Homo sapiens
  GI50: > 100 µM
  IC50: > 100 µM
OVCAR-5; [4]
  CC50: > 100 µM
OVCAR-5
  TGI: 100.0 µM
OVCAR-8; Homo sapiens, 10 μM, OVCAR-8, Ovarian Cancer, read-out: Growth percentage
  activity at 10 µM: 46.1%
OVCAR-8; [17]
  GI50: > 100 µM
  IC50: > 100 µM
OVCAR-8; Homo sapiens, five-dose, OVCAR-8, read-out: LC50 (the source's name)
  CC50: > 100 µM
OVCAR-8; five-dose, OVCAR-8
  TGI: 100.0 µM
NCI/ADR-RES; Homo sapiens, 10 μM, Ovarian Cancer, read-out: Growth percentage
  activity at 10 µM: 112%
NCI/ADR-RES; Homo sapiens, five-dose
  GI50: > 100 µM
  IC50: > 100 µM
NCI/ADR-RES; [2]
  CC50: > 100 µM
NCI/ADR-RES; five-dose
  TGI: 100.0 µM
SK-OV-3; Homo sapiens, 10 μM, SK-OV-3, Ovarian Cancer, read-out: Growth percentage
  activity at 10 µM: 46.3%
SK-OV-3; Homo sapiens, five-dose, SK-OV-3
  IC50: > 100 µM
SK-OV-3; Homo sapiens, five-dose, SK-OV-3, read-out: LC50 (the source's name)
  CC50: > 100 µM
SK-OV-3; five-dose, SK-OV-3
  TGI: 100.0 µM
A498; Homo sapiens, A498, 10 μM, A498, Renal Cancer, read-out: Growth percentage
  activity at 10 µM: 36%
A498; Homo sapiens, five-dose, A498
  GI50: > 100 µM
  IC50: > 100 µM
A498; Homo sapiens, five-dose, A498, read-out: LC50 (the source's name)
  CC50: > 100 µM
A498; five-dose, A498
  TGI: 100.0 µM
PC-3; Homo sapiens, 10 μM, PC-3, Prostate Cancer, read-out: Growth percentage
  activity at 10 µM: 74.1%
PC-3; Homo sapiens, five-dose, PC-3
  GI50: 55 µM
  IC50: > 100 µM
PC-3; Homo sapiens, five-dose, PC-3, read-out: LC50 (the source's name)
  CC50: > 100 µM
PC-3; five-dose, PC-3
  TGI: 100.0 µM
BT-549; Homo sapiens, 10 μM, BT-549, Breast Cancer, read-out: Growth percentage
  activity at 10 µM: -62.2%
BT-549; [18]
  GI50: 15.8 µM
  IC50: 35.5 µM
BT-549; Homo sapiens, five-dose, BT-549, read-out: LC50 (the source's name)
  CC50: 85.1 µM
BT-549; five-dose, BT-549
  TGI: 36.3 µM
T-47D; Homo sapiens, T47D
  GI50: > 100 µM
  IC50: > 100 µM
T-47D; Homo sapiens, T47D, read-out: LC50 (the source's name)
  CC50: > 100 µM
T-47D
  TGI: 100.0 µM
[1]; Homo sapiens, read-out: LC50
  CC50: 0.6 to 100 µM
[1]; Homo sapiens, read-out: Mean growth percentage
  activity at 10 µM: 49.6%
[1]; mean sensitivity across all cell lines in the panel
  Full-panel MG-MID: 70.3 µM
